Key:
HIV-1ADA [1] = experiment: Antiretroviral efficacy of nanoformulations in MDM challenged with HIV-1ADA (RT activity, p24); format: cell-based; conditions: 100 μM 8 hours, all time points
Procedure: Antiretroviral efficacy of nanoformulations: Antiviral efficacies of ABC and the ProTide nanoformulations in MDM were assessed as described (Singh, et al., Nanomedicine (2016) 11:1913-1927). MDM were treated with 100 μM different nanoformulations for 8 hours. Then nanoformulation-containing medium was replaced with fresh medium after washing MDM with PBS twice. Half media changes were conducted every other day. At predetermined time points, days 1, 5, 10, 15, 20, 25 and 30, MDM were infected with HIV-1ADA for 4 hours at a MOI of 0.1 and cultured with every-other-day half media changes for an additional 10 days. At day 10, supernatant was collected for RT assay and MDM were fixed with paraformaldehyde and immunostained for expression of HIVp24. Untreated, uninfected MDM served as negative controls (control), while MDM exposed to HIV-1ADA but not treated with nanoformulations, served as positive controls (HIV-1). For NM3ABC, a concentration response study was also conducted. MDM were treated with 1, 10, 25, 50 or 100 μM NM3ABC for 8 hours. The treated MDM were then washed twice with PBS. MDM were cultured for an additional 30 days in fresh media with half media changes every other day. At day 30, MDM were challenged with HIV-1ADA at a MOI of 0.1 for 4 hours. Excess virus was washed out with PBS and MDM were cultured for another 10 days. […]

HIV-1ADA [2] = experiment: IC50 determination of ABC, MABC, PABC in MDM challenged with HIV-1ADA (RT activity); format: cell-based; conditions: Human immunodeficiency virus 1, 240 h, HIV-1ADA MOI 0.1, RT activity day 10, read-out: IC50 on reverse transcriptase
Procedure: Antiretroviral activities. Antiretroviral efficacy was determined by measurements of HIV reverse transcriptase (RT) activity. For IC50 determination, MDM were exposed to various concentrations (0.01-1000 nM) of ABC, MABC or PABC for 1 hour followed by challenge with HIV-1ADA at a multiplicity of infection (MOI) of 0.1 infectious particles per cell for 4 hours. Following viral challenge, cells were washed and incubated with the same concentration of drug used before infection for an additional 10 days in culture. Culture fluids were collected on day 10 for the measurement of RT activity. To assess antiretroviral efficacy, MDM were treated with 100 μM ABC, PABC or NPABC as described above for 8 hours. After treatment, cells were washed with PBS and cultured with fresh media, with half-media exchanges every other day. At 0, 4, 12 hours, and 1, 5, 10, 15 or 20 days after treatment, cells were challenged with HIV-1ADA at an MOI of 0.1 infectious particles per cell for 16 hours. After viral infection, the cells were cultured an additional 10 days with half-media exchanges every other day. Culture fluids were collected for measurement of RT activity. Cells were fixed with 4% PFA and expression of HIV-1 p24 antigen was determined by immunocytochemistry.

[3] = system: monocyte-derived macrophages (MDM); experiment: Intracellular CBV-TP in MDM after 100 μM ABC or ProTide nanoformulations (uptake and retention); format: cell-based; conditions: human
Procedure: Briefly, MDM were treated with different nanoformulations at a concentration of 100 μM for 1, 2, 4 and 8 hours. At select time points, adherent MDM were collected in 1 mL PBS after washing with 1 mL PBS twice. MDM were pelleted by centrifugation at 3,000 rpm for 8 minutes. The cell pellet was reconstituted in 200 μl methanol and probe sonication (10 seconds) was used to break the cells and extract drugs. After probe sonication, cell debris was pelleted by centrifugation at 14,000 rpm for 10 minutes and 4° C. The supernatant was analyzed for prodrug level using HPLC-UV/Vis. For retention, MDM were treated with 100 μM different nanoformulations for 8 hours. The nanoformulation-containing media were replaced with fresh media after washing MDM with PBS twice. At days 1, 5, 10, 15, 20, 25 and 30, MDM were collected in 1 mL PBS after washing with 1 mL PBS twice. The samples were processed as described above for analysis using HPLC. Intracellular CBV-TP levels were also measured for as an indicator of cell uptake and retention. Briefly, cells were scraped into PBS, pelleted by centrifugation at 3,000 rpm for 8 minutes, and reconstituted in 200 μl 70% methanol. CBV-TP was extracted, and the samples were analyzed by LC-MS/MS as described (Gautam, et al., J. Pharm. Biomed. Anal. (2018) 153:248-259).

[4] = system: monocyte-derived macrophages (MDM); experiment: Macrophage uptake and retention of ABC, NMABC, NPABC; format: cell-based, human; conditions: 100 μM, 8 hours loading
Procedure: Macrophage uptake and retention. Human monocytes were obtained by leukapheresis from HIV-1/2 and hepatitis B seronegative donors, and then purified by counter-current centrifugal elutriation as described (Balkundi, et al., Intl. J. Nanomed. (2011) 6:3393-3404; Nowacek, et al., Nanomed. (2009) 4(8):903-917). Human monocytes were plated in a 12-well plate at a density of 1.0×10^6 cells per well using DMEM supplemented with 10% heat-inactivated pooled human serum, 1% glutamine, 10 μg/mL ciprofloxacin, and 50 μg/mL gentamicin. Cells were maintained at 37° C. in a 5% CO2 incubator. After 7 days of differentiation in the presence of 1000 U/mL recombinant human macrophage colony stimulating factor (MCSF), MDM were treated with 100 μM ABC, nanoformulated myristoylated ABC (NMABC; described in PCT/US15/54826), or NPABC. Uptake of drug was assessed by measurements of intracellular drug concentrations at 1, 2, 4 and 8 hours after treatment. For drug retention studies, cells were treated for 8 hours then washed with PBS and maintained with half-media changes every other day until collection at days 1, 5, 10, 15 and 20. For both studies, adherent MDM were washed with PBS, then scraped into PBS, and counted at indicated time points using an Invitrogen Countess Automated Cell Counter (Carlsbad, Calif.). […] Drug content was determined by UPLC-UV/Vis.

IC50 (HIV-1ADA [2]): 131 nM
decrease of CBV-TP from 4 hours to 8 hours [3]: 37%
retention of CBV-TP in MDMs, detected/sustained until day ([3]; 30 day): 5 days
eliminated from MDM within [4]: within a day
SMILES: Nc1nc(NC2CC2)c2ncn([C@H]3C=C[C@@H](CO)C3)c2n1 [ABC, abacavir]
protection against viral infection (HIV-1ADA [1]): minimal protection against viral infection
